Assay results as given in patent US5225530A, “Polypeptide useful for the preparation of antimalarial vaccines and of diagnostic kits for the detection of malarial affections” (priority 1986, dated 1993).

System: sporozoites of P. falciparum
Assay: Inhibition of penetration of sporozoites into human hepatocytes
Type: cell-based
Settings: sera of immunized C57BL/6 mice; 1:5 solution of sample; human hepatoma cells
Method: Human hepatoma cells were seeded at a concentration of 10^5 cells/chamber in Lab.-Tek plastic chambers (Miles) and cultivated for 24-48 hours
Then, to each chamber 25 μl was charged of a suspension containing 5-10^4 sporozoites of P. falciparum and 25 μl of a 1:5 solution of the sample under test.
The sporozoites were obtained from salivary glands of Anopheles stephensi infected with P. falciparum.
Two and six days later, the number of infected hepatocytes was determined by immunofluorescence by using monoclonal anti-P. falciparum CS protein antibodies.

(Asn--Ala--Asn--Pro)40 [(NANP)40] was tested. Which “inhibition of the penetration of the sporozoites of P. falciparum into the hepatic cells” value did it give?
Its value is less than 86%.
